Assay results as given in patent US20240091366A1, “NOVEL ACID-SENSITIVE APTAMER TRIPTOLIDE CONJUGATE AND APPLICATIONS” (priority 2022, published 2024).
Several values for one entry are separate records, joined by “and”; a condition that tells them apart may be missing. Identical values can stand only once.

Tests used:
[1] = Body weight during administration, lung cancer model; details: A549 model, during 8 times of administration
Experimental: (§1) Experimental protocol: Female nude mice were reared for 6-7 weeks under standard environment, lung cancer cell line A549 were suspended in serum-free medium, and each mouse was inoculated with 6*10^6 tumor cells. When the tumor volume reached 50-100 mm^3, the mice were randomly divided into 4 groups, and were injected with aptamer triptolide conjugate, triptolide, and aptamer by tail vein, respectively, 12 mice in each group. A PBS negative control group was set up. […] The drugs were administered once every 2 days for 8 consecutive doses, and the experiment was ended 24 hours after the last dose. At the end of the experiment, the animals were executed by breaking the cervical vertebrae, and the tumors were stripped and weighed to calculate the tumor growth inhibition rate of the drug. The t-test was used to compare the tumor weight, tumor volume, RTV and other indexes of the animals in each group.

[2] = tested on: colon cancer cells HCT116; assay: In vivo antitumor activity, colon cancer xenograft in nude mice; set-up: species or system mouse; Tumor weight: unit not given here; details: HCT116 model, once every 2 days, 8 doses
Description: (§2) The following are the in vivo activity studies conducted in different tumor-bearing mice:
(§3) A PBS negative control group was set up.

[3] = tested on: human embryonic kidney cells HEK293; assay: MTT assay, cytotoxicity on normal cells; format: cell-based; details: for cell proliferation inhibition rate: 48 h, samples 1-3
Experimental: (§4) The same materials as those in Part II above are not repeated here, in addition to the following: human normal hepatocytes LO2, human embryonic kidney cells HEK293 were purchased from the Shanghai Cell Bank of the Chinese Academy of Sciences and preserved in our laboratory.
(§5) Take the […] LO2 and HEK293 cell lines from the liquid nitrogen tank, place them in a 37° C. water bath, wait for the frozen cells to melt into cell suspension, centrifuge the cells at 1000 r/min for 3 min, discard the supernatant, add 1 ml of fresh complete medium containing 10% fetal bovine serum and 1% double antibody to mix the cells, then add 5 ml of medium, gently and repeatedly blowing the cells with a pipette gun to make them mix well. Then add 5 ml of medium, blow the cells gently and repeatedly with a pipette gun to mix them well, and finally transfer the cell suspension to a […] and label the cell name, cell number, date of resuscitation and the operator's name, and place it in a cell culture incubator for cultivation. (HEK293 cell line was cultured with DMEM medium, LO2 cell line was cultured with RPMI1640 medium)
(§6) Take LO2 and HEK293 cells with good growth status, remove the medium, add 1 ml of sterile PBS to wash, add 1.5 ml of trypsin to digest the cells, about 2 min later the cells become round and fall off, add 1.5 ml of medium to terminate the digestion, transfer it to centrifugal tube, centrifuge at 1000 r/min for 3 min, discard the supernatant, add 1 ml of fresh medium to resuspend, then add fresh medium for 1:3 distribution to other culture dishes, and label the date of transmission and the number of generations. Place in the cell culture incubator for cultivation.
(§7) Take LO2 and HEK293 cells with good growth status, by the same operation as the cell passaging experiment, after cell resuspension, cell counting with hemocyte counting plate, with 3000 cells/well, plant in 96-well plate, after 24 h of cell culture, remove the original medium, add medium containing different concentrations of drugs and continue to cultivate for 48 hours. After 24 h of cell culture, the original medium was removed and the medium containing different concentrations of drugs was added to continue the culture for 48 hours. […] The above steps were repeated three times.

[4] = tested on: human normal hepatocytes LO2; assay: MTT assay, cytotoxicity on normal cells; format: cell-based; details: for cell proliferation inhibition rate: 48 h, samples 1-3
Experimental: as §4, §5, §6, §7

[5] = Body weight during administration, colon cancer model; details: HCT116 model, during 8 times of administration
Experimental: as §1, with “Female” for “Experimental protocol: Female”, “colon” for “lung”, “cells HCT116” for “cell line A549”, “5*10^6” for “6*10^6”

[6] = tested on: breast cancer cells MDA-MB-231; assay: In vivo antitumor activity, breast cancer xenograft in nude mice; set-up: species or system mouse; Tumor weight: unit not given here; details: MDA-MB-231 model, once every 2 days, 8 doses
Description: as §2
The materials used in the experiments were the same as those tested in 5.1 Colon cancer cell lines, differing only in the tumor strains.
as §3

[7] = Body weight during administration, breast cancer model; details: MDA-MB-231 model, during 8 times of administration
Experimental: as §1, with “Specific experimental” for “Experimental”, “breast” for “lung”, “cells MDA-MB-231” for “cell line A549”

AS1411: nucleolin aptamer, single-stranded oligonucleotide, SEQ ID NO: 1 GGTGGTGGTGGTTGTGGTGGTGGTGG
body weights of mice [1]: basically maintained in the tolerable range of animal toxicity and side-effects | RTV ([2]; 10 μM 100 μL tail vein): 33.13 ± 0.51 | T/C (%) ([2]; 10 μM 100 μL tail vein): 93.19% | Tumor inhibition rate (%) ([2]; 10 μM 100 μL tail vein): 6.45% | Tumor weight ([2]; 10 μM 100 μL tail vein): 2.92 ± 0.33 | RTV ([2]; 30 μM 100 μL tail vein): 28.56 ± 0.23 | T/C (%) ([2]; 30 μM 100 μL tail vein): 80.34% | Tumor inhibition rate (%) ([2]; 30 μM 100 μL tail vein): 12.91% | Tumor weight ([2]; 30 μM 100 μL tail vein): 2.74 ± 0.15 | RTV ([2]; 50 μM 100 μL tail vein): 26.32 ± 0.15 | T/C (%) ([2]; 50 μM 100 μL tail vein): 74.04% | Tumor inhibition rate (%) ([2]; 50 μM 100 μL tail vein): 16.12% | Tumor weight ([2]; 50 μM 100 μL tail vein): 2.66 ± 0.14 | inhibitory effect on normal cells ([3]; HEK293): no significant inhibitory effect | cell proliferation inhibition rate ([3]; HEK293, 6.3 nM, 0.0063 µM): 1.4844 and 1.0633 and 2.0955 | cell proliferation inhibition rate ([3]; HEK293, 12.5 nM, 0.0125 µM): 2.3262 and 2.9846 and 3.9285 | cell proliferation inhibition rate ([3]; HEK293, 25.0 nM, 0.025 µM): 4.6088 and 4.6251 and 5.5956 | cell proliferation inhibition rate ([3]; HEK293, 50.0 nM, 0.05 µM): 5.9341 and 4.5183 and 7.0200 | cell proliferation inhibition rate ([3]; HEK293, 100.0 nM, 0.1 µM): 9.5603 and 9.9858 and 6.6667 | cell proliferation inhibition rate ([3]; HEK293, 200.0 nM, 0.2 µM): 13.0496 and 11.5603 and 7.0200 | inhibitory effect on normal cells ([4]; LO2): no significant inhibitory effect | cell proliferation inhibition rate ([4]; LO2, 6.3 nM, 0.0063 µM): 2.1198 and 1.5844 and 2.2503 | cell proliferation inhibition rate ([4]; LO2, 12.5 nM, 0.0125 µM): 3.1924 and 2.7446 and 2.0042 | cell proliferation inhibition rate ([4]; LO2, 25.0 nM, 0.025 µM): 4.5962 and 5.2695 and 5.1506 | cell proliferation inhibition rate ([4]; LO2, 50.0 nM, 0.05 µM): 7.3070 and 6.4174 and 7.0396 | cell proliferation inhibition rate ([4]; LO2, 100.0 nM, 0.1 µM): 7.6842 and 6.8369 and 7.5344 | cell proliferation inhibition rate ([4]; LO2, 200.0 nM, 0.2 µM): 8.3084 and 8.0987 and 13.5426 | body weights of mice [5]: basically maintained in the tolerable range of animal toxicity and side-effects | RTV ([6]; 10 μM tail vein): 39.29 ± 16 | T/C (%) ([6]; 10 μM tail vein): 94.79% | Tumor inhibition rate (%) ([6]; 10 μM tail vein): 7.00% | Tumor weight ([6]; 10 μM tail vein): 3.19 ± 0.27 | RTV ([6]; 30 μM tail vein): 37.55 ± 34 | T/C (%) ([6]; 30 μM tail vein): 90.59% | Tumor inhibition rate (%) ([6]; 30 μM tail vein): 14.87% | Tumor weight ([6]; 30 μM tail vein): 2.92 ± 0.39 | RTV ([6]; 50 μM tail vein): 35.19 ± 38 | T/C (%) ([6]; 50 μM tail vein): 84.90% | Tumor inhibition rate (%) ([6]; 50 μM tail vein): 18.95% | Tumor weight ([6]; 50 μM tail vein): 2.78 ± 0.41 | body weights of mice [7]: basically maintained in the tolerable range of animal toxicity and side-effects
